Reference: patent publication US20130323721A1, “HEPATOCYTES FOR IN VITRO GENOTOXICITY TESTS” (MEDICYTE GMBH, priority 2010, published 2013)
Like-named read-outs stand apart in the source and are kept apart here.

Key:
[1] = tested on: proliferating hepatocytes; assay: Micronucleus formation in proliferating hepatocytes, FACS assay
Experimental: So as to check the suitability of the proliferatable hepatocytes described in the patent with respect to genotoxicity tests, the cells were treated with substances that are considered positive and negative substances for genotoxicity. Genotoxicity was quantified by way of the share of induced micronuclei as compared to the control group using an FACS assay.
The proliferating hepatocytes described in the invention were plated out in a density of 3000 cells/cm^2 on collagen-coated cell culture vessels and treated with the aforementioned substances in various concentrations. Within the scope of regulatory testing according to OECD, testing took place up to 50% cytotoxicity, which was determined for each substance beforehand by way of a MTT viability assay.

V79 cells = conditions: with or without S9 mix; cited from earlier work
[2] = tested on: bacteria (auxotrophic mutants); conditions: with S9 fraction of hamster liver; cited from earlier work

O=P1(N(CCCl)CCCl)NCCCO1 (stereo not shown) [CPA, cyclophosphamide]
Genotoxicity: induced micronuclei compared to the control group ([1]; various concentrations up to 50% cytotoxicity, no external S9, FIGS. 2-4): clearly recognized as being positive
Detection of genotoxicity in micronucleus test (V79 cells): only detected in the currently used micronucleus test with V79 cells if the substance was previously converted with a CYP enzyme extract (S9 mix)

COc1cc(/C=C/C(=O)CC(=O)/C=C/c2ccc(O)c(OC)c2)ccc1O [curcumin]
Genotoxicity: induced micronuclei compared to the control group [1]: did not induce increased micronuclei formation

CCOc1ccc(NC(C)=O)cc1 [phenacetin]
Ames test result (mutagenicity) [2]: only tested positively in the Ames test if an incubation of phenacetin is carried out with the S9 fraction of hamster liver
